This experiment has as its target T1, Human full length PKD1 (Homo sapiens, UniProt Q15139).
T1 construct: Human full length PKD1 at ˜100 μg/mL purchased from Upstate Ltd; purchased Upstate Ltd 14-508
T1 sequence (Q15139 1-912): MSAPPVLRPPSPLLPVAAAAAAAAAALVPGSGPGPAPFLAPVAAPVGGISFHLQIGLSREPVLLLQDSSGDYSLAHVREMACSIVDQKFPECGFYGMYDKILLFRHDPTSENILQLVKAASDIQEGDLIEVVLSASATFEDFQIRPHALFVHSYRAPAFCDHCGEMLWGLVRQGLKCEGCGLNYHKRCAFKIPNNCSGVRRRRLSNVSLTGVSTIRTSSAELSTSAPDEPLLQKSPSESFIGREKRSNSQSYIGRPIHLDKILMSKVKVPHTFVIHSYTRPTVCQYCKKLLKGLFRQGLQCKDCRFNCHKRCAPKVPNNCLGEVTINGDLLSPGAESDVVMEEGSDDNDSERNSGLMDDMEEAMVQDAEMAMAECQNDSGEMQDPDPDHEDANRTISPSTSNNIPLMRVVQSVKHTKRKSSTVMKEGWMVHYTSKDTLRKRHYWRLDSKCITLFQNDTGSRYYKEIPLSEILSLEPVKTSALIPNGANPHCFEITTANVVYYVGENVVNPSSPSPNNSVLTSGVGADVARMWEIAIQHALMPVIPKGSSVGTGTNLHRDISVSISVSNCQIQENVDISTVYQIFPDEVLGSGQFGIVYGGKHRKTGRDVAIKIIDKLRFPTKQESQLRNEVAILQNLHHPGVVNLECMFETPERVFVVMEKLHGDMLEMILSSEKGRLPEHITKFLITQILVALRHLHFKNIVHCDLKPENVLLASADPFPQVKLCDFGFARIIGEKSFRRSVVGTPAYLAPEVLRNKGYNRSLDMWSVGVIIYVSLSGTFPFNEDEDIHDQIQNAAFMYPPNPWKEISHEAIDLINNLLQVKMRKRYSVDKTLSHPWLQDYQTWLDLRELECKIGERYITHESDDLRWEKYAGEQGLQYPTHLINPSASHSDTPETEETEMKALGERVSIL
The experiment in a line: PKD1 (Human Full Length) Enzyme Activity Assay (IMAP fluorescence polarisation). The conditions noted are these: 10 μM ATP, 25 minutes, room temperature. It counts as biochemical. Here is the method: Kinase Assay Reaction Buffer: This consisted of 0.22 μM filtered 25 mM HEPES and 2 mM MgCl2 pH 7.5.
Kinase Enzyme: Human full length PKD1 at ˜100 μg/mL purchased from Upstate Ltd (Product code 14-508) was obtained from aliquots stored at −70° C. It was prepared with a final concentration of 0.3 μg/mL by diluting 1:300 in Reaction Buffer (30 μL per 9 mL-5 mL per plate with an additional 4 mL dead volume) and vortexing prior to use.
Substrate: Fluorescein labelled glycogen synthase-derived peptide (FI)-KKLNRTLSVA (also known as MAPKAP K2 substrate) was obtained from Molecular Devices (Product code R7127). […]
The fluorescence polarisation of the substrate in each well was recorded using an analyst microplate reader (Molecular Devices) with a single read at Ex485 Em535 (Analyst settings: Z Height 5 mm, G Factor 0.95, Reads/well 1, Integration 100000 μs, Gain Sensitivity 2).
Percentage inhibition was calculated based on activity of the test sample minus the average values in the blank wells relative to the average values measured in control wells minus the average values in the blank wells.
IC50 values were calculated from 10 point dose sigmoid ‘dose-response’ curves using Xlfit software (IDBS inc, USA). […]
A general note: Polarisation of emitted light reports the rotation of a fluorescent probe.

The structures appear in SMILES notation.

A word on the IC50: it is the concentration that inhibits the measured activity by half. Higher therefore signals weaker potency.

As for `COc1cc(-c2nc(-c3cccc(C(=O)NCCN(C)C)c3)cnc2N)ccc1O` [X-017, 3-[5-Amino-6-(4-hydroxy-3-methoxy-phenyl)-pyrazin-2-yl]-N-(2-dimethylamino-ethyl)-benzamide], the half-maximal inhibitory concentration (IC50) came to 4 nM. The same measure for `COc1cc(-c2cc(-c3cccc(C(=O)NCCN(C)C)c3)cnc2N)ccc1O` [Y-059, 3-[6-Amino-5-(4-hydroxy-3-methoxy-phenyl)-pyridin-3-yl]-N-(2-dimethylamino-ethyl)-benzamide]: 6 nM.

Source of the values: US20110098325A1, “PYRIDINE BENZAMIDES AND PYRAZINE BENZAMIDES USED AS PKD INHIBITORS” (CANCER RESEARCH TECHNOLOGY LIMITED, priority 2006, published 2011).
